The values below come from patent EP0145314A1, “Antifungal triazole compound” (IMPERIAL CHEMICAL INDUSTRIES PLC, priority 1983, dated 1985).

A short description of series [1]: Teratogenicity / maternal toxicity in the rabbit. Type of series: in vivo. To be noted: lowest dose at which impaired maternal weight gain was observed. The protocol:
As indicated above, the compound of this invention has been found not to be teratogenic at doses up to the maternally toxic dose. In both the rabbit and the rat, the maternally toxic dose was taken to be the lowest dose at which impaired maternal weight gain was observed. In the rabbit, this dose was 10 mg./kg. and in the rat between 25 and 50 mg./kg.

Series [2] deals with Candida albicans and Trichophyton mentagrophytes var. quinkeanum. Nature of the series: Oral antifungal test in mice inoculated with Candida (vagina) and Trichophyton (back), minimum effective dose. As to conditions: 168 h; female mice, oral dosing twice on day 0 and once daily on days 1-4; skin lesions scored and vaginal samples cultured on day 7; read-out: minimum effective dose (MED). Type of series: in vivo. As for the experimental part: The following Monday (day 0) they are clipped on the back and then dosed orally with the test compound. They are then inoculated with Candida albicans in the vagina and Trichophyton mentagrophytes var. quinkeanum on the back, and then given a second dose of the same compound. Dosing is repeated once daily on days 1-4. On day 7 skin lesions are scored visually and vaginal samples taken for culture on agar. Groups of 5 mice are used and the compound is dosed initially at a level of 250 mg./kg. The dose is then reduced sequentially until a minimum effective dose (MED) is found. The MED for 2-(2-fluoro-4-trifluoromethylphenyl)-l,3-di(l,2,4-triazol-l-yl)-2-propanol in this test was 5 mg. per kg.

As for `OC(Cn1cncn1)(Cn1cncn1)c1ccc(C(F)(F)F)cc1F` [2-(2-fluoro-4-trifluoromethylphenyl)-l,3-di(l,2,4-triazol-l-yl)-2-propanol], the maternally toxic dose in series [1] is 10 mg/kg. Also, in series [2], the minimal effective dose turned out to be 5 mg/kg.
